In patent publication US9994551B2, “Pyridazine derivatives as RORc modulators” (Genentech, Inc., priority 2015, dated 2018) one finds IC50 data, which are given here for 26 molecules.

pIC50: −log10 of the molar value.

For the experiment, the target named is T1, RORc ligand binding domain (Homo sapiens, UniProt P51449).
T1 construct: host or cells: E. coli
T1 sequence (P51449 269-508 limits assumed): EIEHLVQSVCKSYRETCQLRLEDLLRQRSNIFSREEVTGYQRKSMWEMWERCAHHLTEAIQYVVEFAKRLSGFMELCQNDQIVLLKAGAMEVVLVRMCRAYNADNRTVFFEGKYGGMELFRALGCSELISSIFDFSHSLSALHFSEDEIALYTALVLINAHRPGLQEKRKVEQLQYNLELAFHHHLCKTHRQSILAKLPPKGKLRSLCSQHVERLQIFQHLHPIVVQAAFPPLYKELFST
The experiment can be described thus: In vitro RORc ligand binding assay (25-[3H]hydroxycholesterol displacement, filter binding).
As usually defined, the pIC50 is −log10 of the IC50, conventionally taken in molar units. A low value points to a large IC50. With `CN1CCO[C@H]([C@@]23CC[C@@H](c4cc(-c5c(F)cccc5F)nnc42)C3(C)C)C1` [Compound 67, (R)-2-((5R,8R)-3-(2,6-difluorophenyl)-9,9-dimethyl-5,6,7,8-tetrahydro-5,8-methanocinnolin-8-yl)-4-methylmorpholine], the negative-log IC50 (pIC50) was 6.67.

The molecule `CC1(C)[C@H]2CC[C@]1(c1cccc3nccn13)c1nnc(-c3c(F)cccc3F)cc12` [Compound 107, (5R,8S)-3-(2,6-difluorophenyl)-8-(imidazo[1,2-a]pyridin-5-yl)-9,9-dimethyl-5,6,7,8-tetrahydro-5,8-methanocinnoline] showed a negative logarithm of the IC50 (pIC50) of 7.04.

In turn, `CC(C)NC(=O)N1CCC[C@H]([C@@]23CC[C@@H](c4cc(-c5c(F)cccc5F)nnc42)C3(C)C)C1` [Compound 137, 3-[5-(2,6-difluorophenyl)-11,11-dimethyl-3,4-diazatricyclo[6.2.1.02,7]undeca-2,4,6-trien-1-yl]-N-isopropyl-piperidine-1-carboxamide] gave a pIC50 of 7.38. Regarding `CC1(C)[C@H]2CC[C@]1(c1ccn3ccnc3n1)c1nnc(-c3c(F)cccc3F)cc12` [Compound 106], the pIC50 is 6.99. In the case of `C[C@H](O[C@@]12CC[C@@H](c3cc(-c4c(F)cccc4F)nnc31)C2(C)C)C(N)=O` [Compound 43, (S)-2-(((5S,8R)-3-(2,6-difluorophenyl)-9,9-dimethyl-5,6,7,8-tetrahydro-5,8-methanocinnolin-8-yl)oxy)propanamide] it was 6.52. In the case of `C[C@@H](O[C@@]12CC[C@@H](c3cc(-c4c(F)cccc4F)nnc31)C2(C)C)C(N)=O` [Compound 42, (R)-2-(((5S,8R)-3-(2,6-difluorophenyl)-9,9-dimethyl-5,6,7,8-tetrahydro-5,8-methanocinnolin-8-yl)oxy)propanamide] it was 7.84; in that of `CC[C@H](CO)O[C@@]12CC[C@@H](c3cc(-c4c(F)cccc4F)nnc31)C2(C)C` [Compound 35, (R)-2-(((5S,8R)-3-(2,6-difluorophenyl)-9,9-dimethyl-5,6,7,8-tetrahydro-5,8-methanocinnolin-8-yl)oxy)butan-1-ol], 7.70. The molecule `CC[C@@H](O[C@]12CC[C@H](c3cc(-c4c(F)cccc4F)nnc31)C2(C)C)C(=O)O` [Compound 113, (2R)-2-[[(1S,8R)-5-(2,6-difluorophenyl)-11,11-dimethyl-3,4-diazatricyclo[6.2.1.02,7]undeca-2,4,6-trien-1-yl]oxy]butanoic acid] showed a negative-log IC50 (pIC50) of 7.33. `CC1(C)[C@H]2CC[C@]1([C@@H]1CN(C(=O)c3ccc(=O)[nH]n3)CCO1)c1nnc(-c3c(F)cccc3F)cc12` [Compound 89, 6-((R)-2-((5R,8R)-3-(2,6-difluorophenyl)-9,9-dimethyl-5,6,7,8-tetrahydro-5,8-methanocinnolin-8-yl)morpholine-4-carbonyl)pyridazin-3(2H)-one] gave a negative logarithm of the IC50 (pIC50) of 6.63. Compared with the last molecule, the pIC50 is 0.70 log units lower.

In the case of `CC[C@H](O[C@@]12CC[C@@H](c3cc(-c4c(F)cccc4F)nnc31)C2(C)C)C(=O)NCCS(C)(=O)=O` [Compound 26, (S)-2-(((5S,8R)-3-(2,6-difluorophenyl)-9,9-dimethyl-5,6,7,8-tetrahydro-5,8-methanocinnolin-8-yl)oxy)-N-(2-(methylsulfonyl)ethyl)butanamide], the pIC50 is 7.37. Take `CCNC(=O)[C@H](CC)O[C@@]12CC[C@@H](c3cc(-c4c(F)cccc4F)nnc31)C2(C)C` [Compound 19, (S)-2-(((5S,8R)-3-(2,6-difluorophenyl)-9,9-dimethyl-5,6,7,8-tetrahydro-5,8-methanocinnolin-8-yl)oxy)-N-ethylbutanamide]: the pIC50 was 7.46. `CC(=O)N1CCN(C)[C@H]([C@@]23CC[C@@H](c4cc(-c5c(F)cccc5F)nnc42)C3(C)C)C1` [Compound 177, 1-[3-[5-(2,6-difluorophenyl)-11,11-dimethyl-3,4-diazatricyclo[6.2.1.02,7]undeca-2,4,6-trien-1-yl]-4-methyl-piperazin-1-yl]ethanone] had a pIC50 of 7.82. In the case of `CC1(C)[C@H]2CC[C@]1([C@H]1CN(c3nc(CO)co3)CCO1)c1nnc(-c3c(F)cccc3F)cc12` [Compound 128, [2-[2-[5-(2,6-difluorophenyl)-11,11-dimethyl-3,4-diazatricyclo[6.2.1.02,7]undeca-2,4,6-trien-1-yl]morpholin-4-yl]oxazol-4-yl]methanol] it was 7.43; in that of `Cc1cc(O[C@@]23CC[C@@H](c4cc(-c5c(F)cccc5F)nnc42)C3(C)C)ccn1` [Compound 25, (5S,8R)-3-(2,6-difluorophenyl)-9,9-dimethyl-8-((2-methylpyridin-4-yl)oxy)-5,6,7,8-tetrahydro-5,8-methanocinnoline], 6.07; in that of `CC[C@@H](O[C@@]12CC[C@@H](c3cc(-c4c(F)cccc4F)nnc31)C2(C)C)C(=O)NC[C@H](C)O` [Compound 51, (R)-2-(((5S,8R)-3-(2,6-difluorophenyl)-9,9-dimethyl-5,6,7,8-tetrahydro-5,8-methanocinnolin-8-yl)oxy)-N-((S)-2-hydroxypropyl)butanamide], 7.21. To `Cc1n[nH]c(N2CCO[C@@H]([C@@]34CC[C@@H](c5cc(-c6c(F)cccc6F)nnc53)C4(C)C)C2)n1` [Compound 93, (S)-2-((5R,8R)-3-(2,6-difluorophenyl)-9,9-dimethyl-5,6,7,8-tetrahydro-5,8-methanocinnolin-8-yl)-4-(3-methyl-1H-1,2,4-triazol-5-yl)morpholine] belongs 6.72.

The molecule `CNC(=O)c1nccnc1O[C@@]12CC[C@@H](c3cc(-c4c(F)cccc4F)nnc31)C2(C)C` [Compound 15, 3-(((5S,8R)-3-(2,6-difluorophenyl)-9,9-dimethyl-5,6,7,8-tetrahydro-5,8-methanocinnolin-8-yl)oxy)-N-methylpyrazine-2-carboxamide] gave a negative-log IC50 (pIC50) of 7.14. This pIC50 is 0.42 log units higher than that of the molecule before. For `CC1(C)[C@H]2CC[C@]1([C@H]1CCCN(C(=O)NCC3(O)COC3)C1)c1nnc(-c3c(F)cccc3F)cc12` (stereo in doubt) [Compound 153, 3-[5-(2,6-difluorophenyl)-11,11-dimethyl-3,4-diazatricyclo[6.2.1.02,7]undeca-2,4,6-trien-1-yl]-N-[(3-hydroxyoxetan-3-yl)methyl]piperidine-1-carboxamide], the pIC50 is 6.96. In the case of `COC(=O)N1CCO[C@@H]([C@@]23CC[C@@H](c4cc(-c5c(F)cccc5F)nnc42)C3(C)C)C1` [Compound 87, (S)-methyl 2-((5R,8R)-3-(2,6-difluorophenyl)-9,9-dimethyl-5,6,7,8-tetrahydro-5,8-methanocinnolin-8-yl)morpholine-4-carboxylate] it was 7.43; in that of `CC1(C)[C@H]2CC[C@]1(Oc1ncccn1)c1nnc(-c3c(F)cccc3F)cc12` [Compound 14, (5S,8R)-3-(2,6-difluorophenyl)-9,9-dimethyl-8-(pyrimidin-2-yloxy)-5,6,7,8-tetrahydro-5,8-methanocinnoline], 7.08. Consider `CC1(C)[C@H]2CC[C@]1([C@@H]1CN(c3ncn[nH]3)CCO1)c1nnc(-c3c(F)cccc3F)cc12` [Compound 155, 2-[5-(2,6-difluorophenyl)-11,11-dimethyl-3,4-diazatricyclo[6.2.1.02,7]undeca-2,4,6-trien-1-yl]-4-(1H-1,2,4-triazol-5-yl)morpholine], for which the pIC50 was 7.22. The molecule `CC[C@@H](O[C@@]12CC[C@@H](c3cc(-c4c(F)cccc4F)nnc31)C2(C)C)C(=O)N1CCCOCC1` [Compound 101, (R)-2-(((5S,8R)-3-(2,6-difluorophenyl)-9,9-dimethyl-5,6,7,8-tetrahydro-5,8-methanocinnolin-8-yl)oxy)-1-(1,4-oxazepan-4-yl)butan-1-one] had a pIC50 of 6.83. In the case of `CC1(C)[C@H]2CC[C@]1([C@H]1CN(C(N)=O)CCO1)c1nnc(-c3c(F)cccc3F)cc12` [Compound 81, (S)-2-((5R,8R)-3-(2,6-difluorophenyl)-9,9-dimethyl-5,6,7,8-tetrahydro-5,8-methanocinnolin-8-yl)morpholine-4-carboxamide] it was 7.18; in that of `CN1CCN[C@H]([C@@]23CC[C@@H](c4cc(-c5c(F)cccc5F)nnc42)C3(C)C)C1` [Compound 183, 5-(2,6-difluorophenyl)-11,11-dimethyl-1-(4-methylpiperazin-2-yl)-3,4-diazatricyclo[6.2.1.02,7]undeca-2,4,6-triene], 7.89; in that of `CC1(C)[C@H]2CC[C@]1([C@H]1CCCN(C(=O)NCCS(C)(=O)=O)C1)c1nnc(-c3c(F)cccc3F)cc12` [Compound 158, 3-[5-(2,6-difluorophenyl)-11,11-dimethyl-3,4-diazatricyclo[6.2.1.02,7]undeca-2,4,6-trien-1-yl]-N-(2-methylsulfonylethyl)piperidine-1-carboxamide], 7.89.

For `CC1(C)[C@H]2CC[C@]1([C@H]1CN(C(=O)c3cnco3)CCO1)c1nnc(-c3c(F)cccc3F)cc12` [Compound 94, ((S)-2-((5R,8R)-3-(2,6-difluorophenyl)-9,9-dimethyl-5,6,7,8-tetrahydro-5,8-methanocinnolin-8-yl)morpholino)(oxazol-5-yl)methanone], the pIC50 is 7.12.
